Test results: the NIST ThermoML archive (doi:10.1007/s10765-010-0717-9)
± gives the expanded uncertainty stated by the source.

Settings: 298.15 K; 101.33 kPa; Liquid; Pycnometric method

SMILES	mass density [kg/m3]
Cc1ccc(C)cc1 [1,4-dimethylbenzene]	856.58 ± 5.3
Cc1ccccc1C [1,2-dimethylbenzene]	875.99 ± 5.6
Cc1ccccc1 [toluene]	862.21 ± 5.4
